The METLIN SMRT retention time set (Domingo-Almenara et al. 2019)

Test: gradient 5% acetonitrile 3 min, to 50% in 2 min, to 85% in 15 min, held 3 min, 100 µL/min
Conditions: column: Zorbax Extend-C18 2.1 x 50 mm; eluents: water / acetonitrile, 0.1% formic acid
Outline: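 Values are retention times taken from adduct peaks that software picked and an analyst inspected. The pure standards were run as mixtures of ~100 molecules on HPLC linked to a quadrupole time-of-flight mass spectrometer, in positive and negative ionization mode. A Zorbax Extend-C18 column (2.1 × 50 mm, 1.8 μm) was used at 100 μL/min with water and acetonitrile, each including 0.1% formic acid.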

| Compound | RP-LC retention time [s] |
| --- | --- |
| Cc1cc(N2CCN(c3ccccn3)CC2)n2nc(C(F)(F)F)c(-c3ccccc3)c2n1 | 855 |
| O=C(c1cncc(Br)c1)N1CCc2cc(-c3csc(C4CC4)n3)ccc21 | 1070 |
| CC1CCN(S(=O)(=O)c2cc(C(=O)N3CCN(c4ccc(F)cc4)CC3)n(C)c2)CC1 | 1010 |
| COc1cc2c(cc1OC)C(C(=O)Nc1ccc3c(c1)OCCO3)C(c1cccs1)N(C)C2=O (stereo not drawn) | 783 |
| CCC(=O)Nc1ccc(C2(C(=O)NCC(C)C)CCCCC2)cc1 | 859 |
| Cc1cccc(NC(=O)C2CCN(S(=O)(=O)c3cc(-c4noc(C)n4)cs3)CC2)n1 | 768 |
| COCCCNC(=O)CN1C(=O)C2CCCCN2c2ccc(C(=O)N(C)C)cc21 (stereo not drawn) | 655 |
| CC(C)Nc1nc(=O)[nH]c2ccccc12 | 550 |
| CCc1ccc(CNC(=O)Cn2ccc3ccc(N4CCCCC4)nc32)cc1 | 999 |
| Cc1cc(=O)n(CC(=O)Nc2ccc3c(c2)OCCO3)c(N)n1 | 542 |
| CCCn1c(-c2cccc(C(=O)N3CCC4(CC3)OCCO4)c2)nc2cccnc21 | 684 |
| CCc1noc2nc(C)n(CC(=O)NCc3ccccc3C)c(=O)c12 | 782 |
| CCc1ccc(-c2ccc(-n3nc(C)c(S(=O)(=O)NC4CC4)c3C)nn2)cc1 | 1070 |
| Cc1cc2c(cc1S(=O)(=O)N1CCCC1C(=O)Nc1ccccc1F)OC(C)C(=O)N2 (stereo not drawn) | 809 |
| CCOC(=O)c1nnc2c(-c3ccccc3)cnn2c1C | 961 |
| Cc1noc(-c2ccc(OC3CN(C(=O)NC(C)C)C3)cc2)n1 | 730 |
| Cc1ccc(-n2nc(N3CCCC(C(=O)Nc4cc(F)ccc4F)C3)ccc2=O)cc1Cl (stereo not drawn) | 1060 |
| CCCc1nnc(NC(=O)C2CC(=O)N(CCc3c[nH]c4ccc(Cl)cc34)C2)s1 (stereo not drawn) | 764 |
| COc1cc(Nc2c(C(=O)N3CCCC(C)C3)cnc3nc(C)ccc23)cc(OC)c1 (stereo not drawn) | 657 |

| Compound | RP-LC retention time [s] |
| --- | --- |
| CC(C)Oc1ccc(CNC(=O)c2cc(-c3ccncc3)cn2C)cc1 | 640 |
| CNC(=O)c1cc2c(=O)n(CC(C)C)c3ccccc3n2n1 | 793 |
| COc1ccc(-c2csc(Nc3ncccn3)n2)cc1OC | 824 |
| Cc1cc(Br)ccc1NC(=O)C1CCCN(c2nccnc2Oc2ccccc2)C1 (stereo not drawn) | 1120 |
| COC(=O)c1nnn(-c2ccc(C)c(C)c2)c1C(=O)OC | 916 |
| COc1cc(=O)n2c(c1C(=O)NC1CCCCCC1)CCCC2 | 694 |
| Cc1ccc(Cl)cc1NC(=O)N(C)CCO | 737 |
| Cc1ccc(C2(O)C(=O)N(CC(=O)Nc3ccc(F)cc3F)c3ccccc32)cc1 (stereo not drawn) | 715 |
| COc1ccc(NS(=O)(=O)c2cc(-c3[nH]ncc3C(=O)N(C)C)oc2C)cc1Cl | 699 |
| COc1ccc(-c2cc(N3CCC(NC(=O)c4ccc(N(C)C)cc4)C3)n[nH]2)cc1 (stereo not drawn) | 702 |
| Cn1cnc([N+](=O)[O-])c1Sc1n[nH]c(N)n1 | 599 |
| CN(c1nccn2c(=O)n(CC(=O)Nc3ccc(F)cc3F)nc12)C1CCCCC1 | 902 |
| O=C1COc2ccccc2N1Cc1nc(-c2ccc(F)cc2)no1 | 984 |
| Cc1ccc(-c2cc3n(n2)CCCN(C(=O)c2ccsc2)C3)cc1 | 845 |
| CCN(CC)C(=O)c1ccc2c(c1)nnn2CCNC(=O)NC(C)(C)C | 658 |
| COc1cccc(CN2C[C@@H]3C(=O)N(CCN4CCc5ccccc5C4)C(=O)[C@@H]3C2)c1 | 590 |
| CC(C)Cn1cc(S(=O)(=O)Nc2cccc(Cl)c2)c2cccnc21 | 912 |
| CCOC(=O)c1ccc(N2CCCC2)nn1 | 562 |
| CC(=O)N1CCc2c(c(CNC(=O)c3cncn3C)nn2C)C1 | 558 |

Further lines, results first:

| RP-LC retention time [s] | Compound |
| --- | --- |
| 1080 | O=C(c1ccc(C(F)(F)F)cc1)N1CCc2nc(-c3ccc(F)cc3)ncc2C1 |
| 1120 | O=C(Cn1nc(N2CCCCCC2)c2ccccc2c1=O)Nc1ccccc1F |
| 653 | O=C(NCc1ccco1)C(=O)NCC1OCCN1C(=O)c1ccc2c(c1)OCO2 (stereo not drawn) |
| 739 | Cn1cnc2ccc(-c3noc(CNS(=O)(=O)c4ccccc4)n3)cc21 |
| 752 | Clc1ccc2nc(-c3ccc(N4CCOCC4)cc3)c(Nc3ccccc3)n2c1 |
| 724 | Cc1nnc2ccc(S(=O)(=O)Nc3cccc(Cl)c3)cn12 |
| 1130 | C=CCN(Cc1nc(-c2ccc(C)cc2)no1)C(=O)Nc1ccccc1OC |
| 905 | O=C1CC(c2ccc3c(c2)OCO3)c2scc(S(=O)(=O)c3ccccc3)c2N1 (stereo not drawn) |
| 882 | CC1CCN(S(=O)(=O)c2nn(Cc3ccccc3)cc2C(=O)O)CC1 |
| 763 | COC(=O)C1=CN(c2cccc(C#N)c2)c2cc(F)ccc2S1(=O)=O |
| 617 | CC(=O)N1CCCC1c1nc(C2CN(C(=O)NCc3ccco3)C2)no1 (stereo not drawn) |
| 802 | O=C([C@@H]1C[C@H](Oc2ccccc2)CN1C(=O)c1n[nH]c2ccccc12)N1CCCC1 |
| 704 | O=C(CCNc1c(-c2ccc(F)cc2)nc2cnccn12)Nc1ccc2c(c1)OCCO2 |
| 994 | O=C(Nc1cc(F)ccc1Cl)c1csc(-c2ccc(N3CCCC3)nc2)n1 |
| 960 | Cc1sc(NC(=O)c2ccccc2Br)nc1-c1ccc2c(c1)N(C)C(=O)CO2 |
| 631 | O=C(NCCN1CCOCC1)c1ccc2nc(Cc3ccccc3)oc2c1 |
| 1060 | COC(=O)c1[nH]c(C)c(CN(C(=O)C2CCCCC2)C2CCCC2)c1C |
| 672 | COCCCNCc1c(C(=O)O)c(C)n(Cc2ccc(Cl)cc2)c1C |
| 932 | CN(c1ccc(F)cc1)S(=O)(=O)N1CCCC(C(=O)NCCc2c[nH]c3ccccc23)C1 (stereo not drawn) |
| 770 | CCc1ccccc1NC(=O)N1CCC(OC2CCN(S(C)(=O)=O)CC2)CC1 |
| 591 | O=C(CCc1ccc2nc[nH]c2c1)Nc1ccc2c(c1)OCCO2 |
| 686 | O=C(C1CC1)N1CCC(Cc2noc(C3CC3)n2)C1 (stereo not drawn) |
| 886 | Cc1ccc(-c2nnc(N3CCC(C(=O)NC(C)c4ccccc4)CC3)o2)cc1 (stereo not drawn) |
| 668 | CCCNc1cc(-n2cccn2)ncn1 |
| 664 | COc1ccccc1CC(=O)Nc1cnc(C)nc1 |

| RP-LC retention time [s] | Compound |
| --- | --- |
| 651 | Cc1oc(-c2[nH]ncc2C(=O)N2CCCC2)cc1S(=O)(=O)NCc1ccco1 |
| 611 | COc1cc(OC)c(NC(=O)C2CCN(C(=O)c3cc(-c4ccncc4)n[nH]3)CC2)cc1Cl |
| 1310 | Cc1cc(NC(=O)c2c(O)c3cccnc3n(-c3cccc(F)c3)c2=O)ccc1F |
| 751 | COc1ccc(C2Cn3cnc(C(=O)N4CCC(C(=O)NC(C)c5ccccc5)CC4)c3CO2)cc1 (stereo not drawn) |
| 1340 | Cc1ccccc1-c1noc(C2CCCN2S(=O)(=O)c2ccc(C(C)C)cc2)n1 (stereo not drawn) |
| 789 | Cc1cc(S(=O)(=O)N2CCOC23CCN(C(=O)C2CC2)CC3)ccc1F |
| 946 | Cc1ccc(NC(=O)c2nnc(CCCC(=O)NCCc3c[nH]c4ccc(C)cc34)s2)cc1 |
| 1250 | CCOC(=O)N1CCN(c2cc(-c3nc(-c4cccc(OC)c4OC)no3)c3ccccc3n2)CC1 |
| 652 | COC[C@@H]1CN(S(=O)(=O)c2cccnc2)C[C@H]1c1ccncc1 |
| 771 | COC(=O)c1ncn2c1C(=O)N(Cc1ccc(F)cc1Cl)C(C)(C(=O)NCc1ccccc1)C2 (stereo not drawn) |
| 604 | Cc1nn(C)c(C)c1CCN(C)c1nc(C2CC2)nc2c1CCC2 |
| 1330 | CCOc1cccc(-c2noc(Cn3ncn4nc(-c5ccc(C)cc5C)cc4c3=O)n2)c1 |
| 835 | CC1=C(c2ccc(F)cc2)S(=O)(=O)N=C1N1CCCN(C(=O)c2cccc(F)c2)CC1 |
| 778 | Cc1ccsc1C(=O)N1CCC(Nc2ncnc3c2CCC3)CC1 |
| 856 | CCC(CC)c1nnc(NC(=O)C2CC(=O)N(CCc3c[nH]c4ccc(C)cc34)C2)s1 (stereo not drawn) |
| 579 | Cn1nc(C(=O)N2CCCCC2)c2c1CCN(C(=O)CCC(=O)NCCCN1CCCCC1)C2 |
| 648 | O=C(c1cc(-c2ccncc2)n[nH]1)N1CCCC(C(=O)N2CC=C(c3ccccc3)CC2)C1 (stereo not drawn) |
| 706 | CCc1nc(N2CCC(C(=O)NCc3ccc(OC)cc3OC)CC2)c2c(C)scc2n1 |
| 859 | COc1ccc(NC(=O)Cn2ccc3ccn(Cc4ccccc4)c3c2=O)cc1OC |
| 663 | Cc1cnc(C2CCC2)n1C1CCN(C(=O)C2(c3ccccc3)CC2)CC1 |
| 784 | COc1ccc(CCC(=O)N2CCC(n3nnc4cc(F)ccc4c3=O)CC2)cc1 |
| 853 | Cc1ccc(-c2nnc(N3CCC(C(=O)NCc4ccc(C)o4)CC3)o2)cc1 |
| 955 | Cc1cccc(S(=O)(=O)N2CCc3c(c(-c4nnc(-c5ccc(F)cc5)o4)nn3C)C2)c1 |
| 818 | Cc1ccc(CNC(=O)C2CCN(C(=O)C3Sc4ccccc4NC3=O)CC2)cc1 (stereo not drawn) |
| 609 | Cn1nc(CNC(=O)c2n[nH]c(=O)c3ccccc23)c2c1CCN(S(C)(=O)=O)C2 |
